# Test results published in patent publication US12428406B2 (PMV Pharmaceuticals, Inc., priority 2019, dated 2025).
# Target: T1, p53 Y220C (Homo sapiens, UniProt P04637, Y220C)
# T1 construct: The recombinant protein was a truncation mutant containing only amino acids 94-312 of p53; made in house; host or cells: E. coli
# Assay: In vitro DNA binding activity assay (HTRF / TR-FRET): stabilization of p53 Y220C and increase of its DNA binding activity
# Assay type: biochemical
# Details: recombinant His-tagged p53 Y220C DNA binding domain (aa 94-312), biotin-labeled consensus DNA, incubated at 27° C. or 29° C. for 60 min
# In short: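 Homogeneous time-resolved fluorescence with E. coli-derived p53 Y220C and biotinylated consensus DNA. Room-temperature incubations of 15 and 20 min precede reading. SC150 denotes the compound concentration required for 50% increased DNA binding.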
# T1 sequence (P04637 94-312, change not shown): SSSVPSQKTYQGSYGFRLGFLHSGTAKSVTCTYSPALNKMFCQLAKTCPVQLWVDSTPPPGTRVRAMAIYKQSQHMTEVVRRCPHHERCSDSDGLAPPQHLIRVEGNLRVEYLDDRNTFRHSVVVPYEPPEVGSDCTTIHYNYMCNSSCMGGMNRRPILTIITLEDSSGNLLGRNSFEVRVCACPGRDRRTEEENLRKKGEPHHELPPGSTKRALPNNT
row,Compound,SC150 (concentration of the compound required to increase the DNA binding activity by 50%)
1,"COc1cc(S(=O)(=O)N(C)CCO)ccc1NCC#Cc1cc2c(NC3CCN(C)CC3)cccc2n1CC(F)(F)F [Compound 472A, N-(2-hydroxyethyl)-3-methoxy-N-methyl-4-[(3-{4-[(1-methylpiperidin-4-yl)amino]-1-(2,2,2-trifluoroethyl)-1H-indol-2-yl}prop-2-yn-1-yl)amino]benzene-1-sulfonamide]",+ (+ = 0 μM ≤ SC150 < 0.05 μM)
2,"CCC(=O)OCC(CN1CCC(Nc2cccc3c2cc(C#CCNc2ccc(S(N)(=O)=O)cc2OC)n3CC(F)(F)F)CC1)OC(=O)CC (centres unmarked) [Compound 587A, 1-{4-[(2-{3-[(2-methoxy-4-sulfamoylphenyl)amino]prop-1-yn-1-yl}-1-(2,2,2-trifluoroethyl)-1H-indol-4-yl)amino]piperidin-1-yl}-3-(propanoyloxy)propan-2-yl propanoate]",+ (+ = 0 μM ≤ SC150 < 0.05 μM)
3,"COc1cc(S(C)(=O)=O)ccc1NCC#Cc1cc2c(NC3CCN([C@@H]4CCOC4)CC3)cccc2n1CC(F)(F)F [Compound 722A, 2-{3-[(4-methanesulfonyl-2-methoxyphenyl)amino]prop-1-yn-1-yl}-N-{1-[(3R)-oxolan-3-yl]piperidin-4-yl}-1-(2,2,2-trifluoroethyl)-1H-indol-4-amine]",+ (+ = 0 μM ≤ SC150 < 0.05 μM)
4,"COc1cc(S(=O)(=O)N(C)CCO)ccc1NCC#Cc1cc2c(NC3CCN(CC(O)CO)CC3)cccc2n1CC(F)(F)F (centres unmarked) [Compound 553A, 4-{[3-(4-{[1-(2,3-dihydroxypropyl)piperidin-4-yl]amino}-1-(2,2,2-trifluoroethyl)-1H-indol-2-yl)prop-2-yn-1-yl]amino}-N-(2-hydroxyethyl)-3-methoxy-N-methylbenzene-1-sulfonamide]",+ (+ = 0 μM ≤ SC150 < 0.05 μM)
5,"CCOc1cc(S(C)(=O)=O)ccc1NCC#Cc1cc2c(N[C@@H]3CCNC[C@@H]3F)cccc2n1CC(F)(F)F [Compound 941A, 2-{3-[(2-ethoxy-4-methanesulfonylphenyl)amino]prop-1-yn-1-yl}-N-[(3S,4R)-3-fluoropiperidin-4-yl]-1-(2,2,2-trifluoroethyl)-1H-indol-4-amine]",+ (+ = 0 μM ≤ SC150 < 0.05 μM)
6,"COc1cc(S(N)(=O)=O)ccc1NCC#Cc1cc2c(NC3CCN(CC4COC(=O)O4)CC3)cccc2n1CC(F)(F)F (centres unmarked) [Compound 546A, 3-methoxy-4-({3-[4-({1-[(2-oxo-1,3-dioxolan-4-yl)methyl]piperidin-4-yl}amino)-1-(2,2,2-trifluoroethyl)-1H-indol-2-yl]prop-2-yn-1-yl}amino)benzene-1-sulfonamide]",+ (+ = 0 μM ≤ SC150 < 0.05 μM)
7,"CNc1cc(S(C)(=O)=O)ccc1OCC#Cc1cc2c(N[C@H]3CC[C@@H](N4CC5(COC5)C4)CC3)cccc2n1CC(F)(F)F [Compound 244A, 2-{3-[4-methanesulfonyl-2-(methylamino)phenoxy]prop-1-yn-1-yl}-N-[(1S,4S)-4-{2-oxa-6-azaspiro[3.3]heptan-6-yl}cyclohexyl]-1-(2,2,2-trifluoroethyl)-1H-indol-4-amine]",++ (++ = 0.05 μM ≤ SC150 < 0.1 μM)
8,"CN1CCC(Nc2cccc3c2cc(C#CCNc2cccc(S(C)(=O)=O)c2)n3CC(F)(F)F)CC1 [Compound 507A, 2-{3-[(3-methanesulfonylphenyl)amino]prop-1-yn-1-yl}-N-(1-methylpiperidin-4-yl)-1-(2,2,2-trifluoroethyl)-1H-indol-4-amine]",++ (++ = 0.05 μM ≤ SC150 < 0.1 μM)
9,CC(C)N1CCC(Nc2cccc3c2cc(C#CCNc2ccc(S(C)(=O)=O)cc2OCC#N)n3CC(F)(F)F)CC1 [Compound 540A],+ (+ = 0 μM ≤ SC150 < 0.05 μM)
10,"CNC(=O)c1ccc(NCC#Cc2cc3c(N[C@H]4CC[C@@H](N(C)C)CC4)cccc3n2CC(F)(F)F)c(O)c1 [Compound 97A, 3-hydroxy-N-methyl-4-{[3-(4-{[(1S,4S)-4-(dimethylamino)cyclo-hexyl]amino}-1-(2,2,2-trifluoroethyl)-1H-indol-2-yl)prop-2-yn-1-yl]amino}benzamide]",+ (+ = 0 μM ≤ SC150 < 0.05 μM)
11,"CNC(=O)c1ccc(NCC#Cc2cc3c(N[C@H]4CC[C@H](N(C)C)CC4)cccc3n2CC(F)(F)F)c(O)c1 [Compound 98A, 3-hydroxy-N-methyl-4-{[3-(4-{[(1R,4R)-4-(dimethylamino)cyclo-hexyl]amino}-1-(2,2,2-trifluoroethyl)-1H-indol-2-yl)prop-2-yn-1-yl]amino}benzamide]",+ (+ = 0 μM ≤ SC150 < 0.05 μM)
12,"CCC(=O)OCCN1CCC(Nc2cccc3c2cc(C#CCNc2ccc(S(C)(=O)=O)cc2OC)n3CC(F)(F)F)CC1 [Compound 585A, 2-{4-[(2-{3-[(4-methanesulfonyl-2-methoxyphenyl)amino]prop-1-yn-1-yl}-1-(2,2,2-trifluoroethyl)-1H-indol-4-yl)amino]piperidin-1-yl}ethyl propanoate]",+ (+ = 0 μM ≤ SC150 < 0.05 μM)
13,"CNS(=O)(=O)c1ccc(NCC#Cc2cc3c(NC4CCN(CCOC)CC4)cccc3n2CC(F)(F)F)c(OC)c1 [Compound 617A, 3-methoxy-4-{[3-(4-{[1-(2-methoxyethyl)piperidin-4-yl]amino}-1-(2,2,2-trifluoroethyl)-1H-indol-2-yl)prop-2-yn-1-yl]amino}-N-methylbenzene-1-sulfonamide]",+ (+ = 0 μM ≤ SC150 < 0.05 μM)
14,"CCOc1cc(S(C)(=O)=O)ccc1NCC#Cc1cc2c(N[C@H]3CC[C@H](N4CCOCC4)CC3)cccc2n1CC(F)(F)F [Compound 346A, 2-(3-((2-ethoxy-4-(methylsulfonyl)phenyl)amino)prop-1-yn-1-yl)-N-((1R,4R)-4-morpholinocyclohexyl)-1-(2,2,2-trifluoroethyl)-1H-indol-4-amine]",+ (+ = 0 μM ≤ SC150 < 0.05 μM)
15,"COCCOc1cc(S(C)(=O)=O)ccc1NCC#Cc1cc2c(N[C@H]3CC[C@H](N(C)C)CC3)cccc2n1CC(F)(F)F [Compound 89A, (1R,4R)-N^4-[2-(3-{[4-methanesulfonyl-2-(2-methoxyethoxy)phenyl]amino}prop-1-yn-1-yl)-1-(2,2,2-trifluoro-ethyl)-1H-indol-4-yl]-N^1,N^1-dimethylcyclo-hexane-1,4-diamine]",+ (+ = 0 μM ≤ SC150 < 0.05 μM)

# The remaining lines, values ahead:
row,SC150 (concentration of the compound required to increase the DNA binding activity by 50%),Compound
1,+ (+ = 0 μM ≤ SC150 < 0.05 μM),"CNC(=O)c1ccc(NCC#Cc2cc3c(N[C@H]4CC[C@H](N(C)C)CC4)cccc3n2CC(F)(F)F)c(OCCOC)c1 [Compound 103A, 3-(2-methoxyethoxy)-N-methyl-4-{[3-(4-{[(1R,4R)-4-(dimethylamino)cyclo-hexyl]amino}-1-(2,2,2-trifluoroethyl)-1H-indol-2-yl)prop-2-yn-1-yl]amino}benzamide]"
2,+ (+ = 0 μM ≤ SC150 < 0.05 μM),"COc1cc(C(=O)NCC(COC(C)=O)OC(C)=O)ccc1NCC#Cc1cc2c(N[C@@H]3CCN(C)C[C@@H]3F)cccc2n1CC(F)(F)F (stereo partly drawn) [Compound 970A, 1-(acetyloxy)-3-[(4-{[3-(4-{[(3S,4R)-3-fluoro-1-methylpiperidin-4-yl]amino}-1-(2,2,2-trifluoroethyl)-1H-indol-2-yl)prop-2-yn-1-yl]amino}-3-methoxyphenyl)formamido]propan-2-yl acetate]"
3,+ (+ = 0 μM ≤ SC150 < 0.05 μM),"CN1CC[C@@H](Nc2cccc3c2cc(C#CCNC(=O)c2ccn(C)c2)n3CC(F)(F)F)[C@@H](F)C1 [Compound 953A, N-[3-(4-{[(3S,4R)-3-fluoro-1-methylpiperidin-4-yl]amino}-1-(2,2,2-trifluoroethyl)-1H-indol-2-yl)prop-2-yn-1-yl]-1-methyl-1H-pyrrole-3-carboxamide]"
4,+ (+ = 0 μM ≤ SC150 < 0.05 μM),"CNC(=O)c1ccc(NCC#Cc2cc3c(N[C@H]4CC[C@H](N5CC6(CCC6)C5)CC4)cccc3n2CC(F)(F)F)c(OC)c1 [Compound 196A, 3-methoxy-N-methyl-4-{[3-(4-{[(1R,4R)-4-{2-azaspiro[3.3]heptan-2-yl}cyclohexyl]amino}-1-(2,2,2-trifluoroethyl)-1H-indol-2-yl)prop-2-yn-1-yl]amino}benzamide]"
5,+ (+ = 0 μM ≤ SC150 < 0.05 μM),COc1cc(S(C)(=O)=O)ccc1NCC#Cc1cc2c(N[C@@H]3CCN(C(C)C)C[C@@H]3F)cccc2n1CC(F)(F)F [Compound 802A]
6,+ (+ = 0 μM ≤ SC150 < 0.05 μM),"CNC(=O)c1ccc(NCC#Cc2cc3c(N[C@@H]4CCN(C)C[C@@H]4F)cccc3n2CC(F)(F)F)c(OC)c1 [Compound 804A, 4-{[3-(4-{[(3S,4R)-3-fluoro-1-methylpiperidin-4-yl]amino}-1-(2,2,2-trifluoroethyl)-1H-indol-2-yl)prop-2-yn-1-yl]amino}-3-methoxy-N-methylbenzamide]"
7,+ (+ = 0 μM ≤ SC150 < 0.05 μM),COC[C@H](O)CN1CC[C@@H](Nc2cccc3c2cc(C#CCNc2ccc(C(=O)OC)cc2OC)n3CC(F)(F)F)[C@@H](F)C1 [Compound 878A]
8,++ (++ = 0.05 μM ≤ SC150 < 0.1 μM),"CCS(=O)(=O)c1ccc(NCC#Cc2cc3c(N[C@@H]4CCN(C(=O)OC(C)(C)C)C[C@@H]4F)cccc3n2CC(F)(F)F)c(OC)c1 [Compound 922A, tert-butyl (3S,4R)-4-{[2-(3-{[4-(ethanesulfonyl)-2-methoxyphenyl]amino}prop-1-yn-1-yl)-1-(2,2,2-trifluoroethyl)-1H-indol-4-yl]amino}-3-fluoropiperidine-1-carboxylate]"
